This experiment addresses NAMPT (Homo sapiens (Human), UniProt P43490). Nature of the experiment: biochemical.

NAMPT, sequence (P43490 whole entry, looked up): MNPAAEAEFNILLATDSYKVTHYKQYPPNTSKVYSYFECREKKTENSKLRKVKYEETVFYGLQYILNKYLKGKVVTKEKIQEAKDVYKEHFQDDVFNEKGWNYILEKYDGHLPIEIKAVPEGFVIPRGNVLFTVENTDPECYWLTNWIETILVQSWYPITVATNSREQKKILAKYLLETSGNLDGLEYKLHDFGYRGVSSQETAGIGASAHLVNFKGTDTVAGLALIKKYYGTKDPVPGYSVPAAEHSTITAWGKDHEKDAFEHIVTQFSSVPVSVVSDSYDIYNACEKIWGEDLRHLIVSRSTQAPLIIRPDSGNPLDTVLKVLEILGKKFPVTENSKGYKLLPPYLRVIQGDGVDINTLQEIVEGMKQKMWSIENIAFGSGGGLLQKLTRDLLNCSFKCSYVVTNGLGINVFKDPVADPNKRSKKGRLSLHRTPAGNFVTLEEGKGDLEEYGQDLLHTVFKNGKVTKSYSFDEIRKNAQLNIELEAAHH
Method: Determination of the utility of compounds having Formula (I) as binders to and inhibitors of NAMPT was performed using a Time-Resolved Fluorescence Resonance Energy Transfer (TR-FRET) binding assay.
Time-Resolved Fluorescence Resonance Energy Transfer (TR-FRET) Binding Assay of NAMPT
Plates were covered, and reactions were carried out for 2-3 hours. Plates were read with Envision (Laser Lantha low volume protocol) after 2 to 3 hours.

Molecule `CC(C)CCC(=O)Nc1ccc(NC(=O)N2Cc3ccccc3C2)cc1` [Example 294, N-{4-[(4-methylpentanoyl)amino]phenyl}-1,3-dihydro-2H-isoindole-2-carboxamide] gave an IC50 of 8.14 nM.

The term IC50 denotes the concentration at which inhibition is half-maximal.

The values above are taken from US9302989B2 (priority 2010, dated 2016).
